In patent US20260224758A1, “ALPHA-SYNUCLEIN BINDERS AND METHODS OF USE” (Merck Sharp & Dohme LLC, priority 2023, published 2026):
pKd, pKi: −log10 of the molar value. Like-named read-outs stand apart in the source and are kept apart here.

Biological target: T1, triton-extracted alpha-synuclein from PD Tissue (Homo sapiens, UniProt P37840)
T1 construct: tissue Analytic Biological Services Inc; host or cells: human PD temporal cortex grey matter, Triton X-100 insoluble pellet
Test: Alpha-synuclein tissue homogenate binding assay (Assay 1), displacement of [^3H]-1000
Settings: for pKi: read-out: α-synuclein Tissue Ki (Assay 1); for Selectivity ratio (Assay 2/Assay 1): Aβ Tissue Ki / α-synuclein Tissue Ki
Description: Frozen human brain tissues from PD patients were purchased from Analytic Biological Services Inc. The samples were post-mortem tissues from donors with clinical diagnosis of late stage of PD. Alpha-synuclein, tau and amyloid burden was determined through a combination of immunohistochemistry on frozen thin coronal sections, as well as alpha Lisa-based quantification of protein levels in a detergent insoluble protein fraction. A tissue sample of temporal cortex was identified from one donor as having moderate to high alpha-synuclein burden, low amyloid and minimal to no tau pathology. The detergent insoluble fraction of temporal cortex from this patient was used to support homogenate binding studies. Grey matter was dissected out of the temporal cortex tissue with a dissecting blade and minced with fine dissecting scissors. […] Homogenates were centrifuged at 100,000×g for 45 minutes. The pellet was resuspended in TBS-TX buffer, using a Polytron at highest setting for 30 seconds at 4° C. Homogenates were centrifuged at 100,000×g for 45 minutes and the pellet was resuspended in TBS-TX buffer. A BCA protein assay was performed on the final homogenate to determine the protein concentration. […] For displacement a-synuclein binding assay, compounds and control were solvated in dimethyl sulfoxide (DMSO) and transferred using focused acoustic energy by an Echo 655 liquid handling instrument (Beckman Coulter, Indianapolis, IN) into designated wells of uniquely bar coded 96-well v-bottom low binding polypropylene microplates (Thermo Scientific, 249946). Compound dose response curves were prepared in a 10-point, 3-fold fashion within columns 2-11 of the microplate from high to low compound concentrations. […] Liquid-handling steps for dispensing insoluble fractions of PD brain homogenates and radioligand were performed using a Bravo automated liquid handling platform equipped with a 96LT disposable tip head (Agilent Technologies, Santa Clara. CA). […] The incubation was terminated by rapid filtration through UniFilter-96 GF/C microplates (pre-treated for 30 minutes with 0.2% Polyethylenimine at 4° C.) by using a FilterMate Harvester (PerkinElmer). […] The bottom of each UniFilter-96 GF/C microplate was adhesively sealed (PerkinElmer 6005199) prior to the addition of 50 μL MicroScint-20 liquid scintillation cocktail (PerkinElmer 6013621) to each well. A clear adhesive seal (TopSeal-A PLUS, PerkinElmer 6050185) was then applied to the top of each microplate and counted 1 minute/well on MicroBeta^2 system (PerkinElmer.

[1] = insoluble fraction of PD brain homogenate, [^3H]-1000 3.0 nM, Kd 0.90 nM

## Cn1ccc(-c2ncc(C#Cc3cnc(N4CCN(c5ncncn5)[C@@H](COCCF)C4)nc3)cn2)n1 [Example 49, (R)-2-(2-((2-fluoroethoxy)methyl)-4-(5-((2-(1-methyl-1H-pyrazol-3-yl)pyrimidin-5-yl)ethynyl)pyrimidin-2-yl)piperazin-1-yl)-1,3,5-triazine]
[1]
  pKi: 8.54

## COC[C@H]1CN(c2ncc(C#Cc3cnc(-c4cnn(CF)c4)nc3)cn2)CCN1c1ncncn1 [Example 56, (R)-2-(4-(5-((2-(1-(fluoromethyl)-1H-pyrazol-4-yl)pyrimidin-5-yl)ethynyl)pyrimidin-2-yl)-2-(methoxymethyl)piperazin-1-yl)-1,3,5-triazine]
[1]
  pKi: 9.19

## [^3H]-(S)-6-(1H-imidazol-1-yl)-N-(2-(2-methyl-4-(pyridin-2-yl)piperazin-1-yl)pyrimidin-5-yl)nicotinamide [[^3H]-1000, reference compound]
Radioligand [^3H]-1000, PD brain insoluble fraction
  pKd: 9.05

## COC[C@H]1CN(c2ncc(/C=C/c3ccc(-n4ccnc4)nc3)cn2)CCN1c1ncc(OCCF)cn1 [Example 35, (R,E)-5-(2-(6-(1H-imidazol-1-yl)pyridin-3-yl)vinyl)-2-(4-(5-(2-fluoroethoxy)pyrimidin-2-yl)-3-(methoxymethyl)piperazin-1-yl)pyrimidine]
  Selectivity ratio (Assay 2/Assay 1): 2000
[1]
  pKi: 8.70

## OC[C@H]1CN(c2ncc(/C=C/c3ccc(-n4ccnc4)nc3)cn2)CCN1c1ncccn1 [Example 1, (R,E)-(4-(5-(2-(6-(1H-imidazol-1-yl)pyridin-3-yl)vinyl)pyrimidin-2-yl)-1-(pyrimidin-2-yl)piperazin-2-yl)methanol]
[1]
  pKi: 8.80

## COC[C@H]1CN(c2ncc(C#Cc3cnc(-c4cnn(CCF)c4)nc3)cn2)CCN1c1ccc(F)cn1 [Example 85, (R)-2-(1-(2-fluoroethyl)-1H-pyrazol-4-yl)-5-((2-(4-(5-fluoropyridin-2-yl)-3-(methoxymethyl)piperazin-1-yl)pyrimidin-5-yl)ethynyl)pyrimidine]
[1]
  pKi: 8.98

## COC[C@H]1CN(c2ncc(C#Cc3cnc(-c4cnn(CCCF)c4)nc3)cn2)CCN1c1ncncn1 [Example 91, (R)-2-(4-(5-((2-(1-(3-fluoropropyl)-1H-pyrazol-4-yl)pyrimidin-5-yl)ethynyl)pyrimidin-2-yl)-2-(methoxymethyl)piperazin-1-yl)-1,3,5-triazine]
[1]
  pKi: 8.61

## COC[C@H]1CN(c2ncc(C#Cc3cnc(-c4cnn(CCF)c4)nc3)cn2)CCN1c1ccncn1 [Example 54, (R)-2-(1-(2-fluoroethyl)-1H-pyrazol-4-yl)-5-((2-(3-(methoxymethyl)-4-(pyrimidin-4-yl)piperazin-1-yl)pyrimidin-5-yl)ethynyl)pyrimidine]
[1]
  pKi: 9.04

## Cn1nccc1-c1ncc(C#Cc2cnc(N3CCN(c4ncncn4)[C@@H](COCCF)C3)nc2)cn1 [Example 98, (R)-2-(2-((2-fluoroethoxy)methyl)-4-(5-((2-(1-methyl-1H-pyrazol-5-yl)pyrimidin-5-yl)ethynyl)pyrimidin-2-yl)piperazin-1-yl)-1,3,5-triazine]
[1]
  pKi: 8.71

## COC[C@H]1CN(c2ncc(C#Cc3ccc(-c4cc(F)ncn4)nc3)cn2)CCN1c1ncc(C#N)cn1 [Example 81, (R)-2-(4-(5-((6-(6-fluoropyrimidin-4-yl)pyridin-3-yl)ethynyl)pyrimidin-2-yl)-2-(methoxymethyl)piperazin-1-yl)pyrimidine-5-carbonitrile]
[1]
  pKi: 8.93

## COC[C@H]1CN(c2ncc(C#Cc3ccc(-n4ccnc4)nc3)cn2)CCN1c1cc(F)ncn1 [Example 12, (R)-5-((6-(1H-imidazol-1-yl)pyridin-3-yl)ethynyl)-2-(4-(6-fluoropyrimidin-4-yl)-3-(methoxymethyl)piperazin-1-yl)pyrimidine]
  Selectivity ratio (Assay 2/Assay 1): 3636
  pKi: 8.96

## Cn1cc(-c2ncc(C#Cc3cnc(N4CCN(c5ccncn5)[C@@H](COCCF)C4)nc3)cn2)cn1 [Example 53, (R)-2-(3-((2-fluoroethoxy)methyl)-4-(pyrimidin-4-yl)piperazin-1-yl)-5-((2-(1-methyl-1H-pyrazol-4-yl)pyrimidin-5-yl)ethynyl)pyrimidine]
[1]
  pKi: 9.49

## FCCOC[C@H]1CN(c2ncc(/C=C/c3ccc(-n4ccnc4)nc3)cn2)CCN1c1ncccn1 [Example 3, (R,E)-5-(2-(6-(1H-imidazol-1-yl)pyridin-3-yl)vinyl)-2-(3-((2-fluoroethoxy)methyl)-4-(pyrimidin-2-yl)piperazin-1-yl)pyrimidine]
  Selectivity ratio (Assay 2/Assay 1): 8000
[1]
  pKi: 9.30

## FCCOCCOC[C@H]1CN(c2ncc(C#Cc3cnc(-c4cncnc4)nc3)cn2)CCN1c1ncncn1 [Example 79, (R)-5-((2-(3-((2-(2-fluoroethoxy)ethoxy)methyl)-4-(1,3,5-triazin-2-yl)piperazin-1-yl)pyrimidin-5-yl)ethynyl)-2,5′-bipyrimidine]
[1]
  pKi: 8.27

## Cn1ccc(-c2ncc(C#Cc3cnc(N4CCN(c5ncc(F)cn5)[C@@H](COCCF)C4)nc3)cn2)n1 [Example 97, (R)-5-fluoro-2-(2-((2-fluoroethoxy)methyl)-4-(5-((2-(1-methyl-1H-pyrazol-3-yl)pyrimidin-5-yl)ethynyl)pyrimidin-2-yl)piperazin-1-yl)pyrimidine]
  pKi: 8.37

## Cn1cc(-c2ncc(C#Cc3cnc(N4CCN(c5ncncn5)C[C@H]4COCCF)nc3)cn2)cn1 [Example 96, (S)-2-(3-((2-fluoroethoxy)methyl)-4-(5-((2-(1-methyl-1H-pyrazol-4-yl)pyrimidin-5-yl)ethynyl)pyrimidin-2-yl)piperazin-1-yl)-1,3,5-triazine]
[1]
  pKi: 8.26

## COC[C@H]1CN(c2ncc(C#Cc3ccc(N4CCC(n5nccn5)CC4)nc3)cn2)CCN1c1ncccn1 [Example 76, (R)-5-((6-(4-(2H-1,2,3-triazol-2-yl)piperidin-1-yl)pyridin-3-yl)ethynyl)-2-(3-(methoxymethyl)-4-(pyrimidin-2-yl)piperazin-1-yl)pyrimidine]
[1]
  pKi: 8.94

## C[C@H]1CN(c2ccc(F)cn2)CCN1c1ncc(C#Cc2cnc(-n3cnnc3)nc2)cn1 [Example 86, (S)-5-((2-(4H-1,2,4-triazol-4-yl)pyrimidin-5-yl)ethynyl)-2-(4-(5-fluoropyridin-2-yl)-2-methylpiperazin-1-yl)pyrimidine]
[1]
  pKi: 8.59

## COC[C@@H]1CN(c2ncncn2)CCN1c1ncc(C#Cc2cnc(-c3cnn(CCF)c3)nc2)cn1 [Example 87, (S)-2-(4-(5-((2-(1-(2-fluoroethyl)-1H-pyrazol-4-yl)pyrimidin-5-yl)ethynyl)pyrimidin-2-yl)-3-(methoxymethyl)piperazin-1-yl)-1,3,5-triazine]
[1]
  pKi: 9.05

## COC[C@H]1CN(c2ncc(C#Cc3cnc(-c4cnn(C)c4)nc3)cn2)CCN1c1cc(F)ncn1 [Example 94, (R)-2-(4-(6-fluoropyrimidin-4-yl)-3-(methoxymethyl)piperazin-1-yl)-5-((2-(1-methyl-1H-pyrazol-4-yl)pyrimidin-5-yl)ethynyl)pyrimidine]
[1]
  pKi: 9.12

## COC[C@H]1CN(c2ncc(C#Cc3ccc(-c4cnn(C)c4)nc3)cn2)CCN1c1ncc(OCCF)cn1 [Example 92, (R)-5-(2-fluoroethoxy)-2-(2-(methoxymethyl)-4-(5-((6-(1-methyl-1H-pyrazol-4-yl)pyridin-3-yl)ethynyl)pyrimidin-2-yl)piperazin-1-yl)pyrimidine]
[1]
  pKi: 9.08

## Cn1cc(-c2ncc(C#Cc3cnc(N4CCN(c5ncncn5)[C@@H](COCF)C4)nc3)cn2)cn1 [Example 95, (R)-2-(2-((fluoromethoxy)methyl)-4-(5-((2-(1-methyl-1H-pyrazol-4-yl)pyrimidin-5-yl)ethynyl)pyrimidin-2-yl)piperazin-1-yl)-1,3,5-triazine]
  pKi: 8.89

## Nc1cnn(-c2ncc(C#Cc3cnc(N4CCN(c5ncncn5)[C@@H](COCCF)C4)nc3)cn2)c1 [Example 73, (R)-1-(5-((2-(3-((2-fluoroethoxy)methyl)-4-(1,3,5-triazin-2-yl)piperazin-1-yl)pyrimidin-5-yl)ethynyl)pyrimidin-2-yl)-1H-pyrazol-4-amine]
[1]
  pKi: 8.04

## FCCOC[C@H]1CN(c2ncc(C#Cc3cnc(-c4cnco4)nc3)cn2)CCN1c1ncncn1 [Example 55, (R)-5-(5-((2-(3-((2-fluoroethoxy)methyl)-4-(1,3,5-triazin-2-yl)piperazin-1-yl)pyrimidin-5-yl)ethynyl)pyrimidin-2-yl)oxazole]
[1]
  pKi: 8.18

## COC[C@H]1CN(c2ncncn2)CCN1c1ncc(C#Cc2cnc(-c3cnn(CCF)c3)nc2)cn1 [Example 84, (R)-2-(4-(5-((2-(1-(2-fluoroethyl)-1H-pyrazol-4-yl)pyrimidin-5-yl)ethynyl)pyrimidin-2-yl)-3-(methoxymethyl)piperazin-1-yl)-1,3,5-triazine]
[1]
  pKi: 8.64
